SMILES strings stand for the structures.

Regarding `Cc1cc(C)c(CN)c(=O)[nH]1`, the melting point (commonly the temperature of the solid-liquid transition) is 139 to 141 °C.

As for `Cc1ccc(C(N)=O)cc1O`, the melting point fell in the range of 181 to 183 °C.

For `O=C(CCl)NCC(=O)Nc1ccccc1Br`, the melting point fell in the range of 218 to 220 °C.

Compound `O=C(O)c1ncoc1-c1cccc(F)c1` displayed a melting point of 169 to 171 °C.

As for `COc1cc(OC)cc(N2CCC(N)C2=O)c1` (centres undefined), the melting point lay within 88 to 90 °C.

As for `CCC(C)n1nccc1N` (centres undefined), the melting point lay within 30 to 32 °C.

In turn, `COc1ccc2nc(C)cc(Cl)c2c1` yielded a melting point of 99 to 101 °C.

For the compound `NS(=O)(=O)c1cc(F)cc(C(=O)O)c1Br`, the melting point lay in the range of 207 to 209 °C.

In the case of `O/N=C(\Cc1nccn1C(F)F)c1ccccc1`, the melting point was 150 to 152 °C.

`CN(Cc1ccccc1N)C(=O)c1cc2ccccc2o1`: the melting point fell in the range of 109 to 111 °C.

With `O=S(=O)(Cl)c1ccc(C2CCCCC2)cc1`, the melting point fell in the range of 49 to 51 °C.

Regarding `COc1ccc(-c2csc(CN)c2)cc1`, the melting point is 124 to 126 °C.

As for `O=S1(=O)CC(Cl)C(Cl)C1` (centres undefined), the melting point is 130 to 133 °C.

Compound `O=C(O)c1ccc(OCc2ccncc2)cc1` displayed a melting point of 278 to 280 °C.

For `O=c1c(Cl)c(Cl)cnn1Cc1ccccc1`, the melting point lay within 87 to 89 °C.

Turning to `CCn1c(C)nc2cc(S(=O)(=O)C(F)F)ccc21`, the melting point is 161 to 163 °C.

Compound `Cc1noc(C)c1S(=O)(=O)NCCC(=O)O` returned a melting point of 105 to 118 °C.

`Cc1nc(-c2ccc(Cl)cc2)sc1C(C)O` (centres undefined): the melting point is 119 to 121 °C.

In turn, `N#Cc1cc(Cl)ccc1CO` had a melting point of 99 to 101 °C.

Consider `O=C1CC(C2CC2)CN1` (centres undefined), for which the melting point was 99 to 101 °C.

As to `CNC(=O)c1n[nH]c(=O)c2ccccc12`, the melting point lay in the range of 283 to 285 °C.

The compound `COc1ccc(C(N)c2cccc(S(C)(=O)=O)c2)cc1` (centres undefined) displayed a melting point of 80 to 82 °C.

For `O=C(O)c1cn(Cc2ccccc2)nc1-c1ccccc1`, the melting point fell in the range of 189 to 191 °C.

Compound `Clc1noc(-c2ccoc2)n1` displayed a melting point of 48 to 50 °C.

As for `CCOC(=O)c1ccc(N2CCNCC2)nc1`, the melting point lay in the range of 49 to 51 °C.

`O=C(c1ccc(F)cc1)c1cnccn1` gave a melting point of 55 to 57 °C.

In turn, `Cc1oncc1C(=O)Nc1ccc(C(=O)O)c(O)c1` came in with a melting point of 214 to 216 °C.

As for `COc1cc(C(C)=O)ccc1S`, the melting point is 58 to 60 °C.

`O=C(O)c1cccn(Cc2ccccc2)c1=O` displayed a melting point of 129 to 131 °C.

With `O=C1CCCC(N2C(=O)c3ccccc3C2=O)C1` (centres undefined), the melting point lay within 147 to 149 °C.

`O=C(O)CCn1ccc2ccccc21` gave a melting point of 49 to 51 °C.

`COC(=O)c1cc([N+](=O)[O-])ccc1N` came in with a melting point of 163 to 165 °C.

Take `Oc1cccc(-n2ccnc2)c1`: the melting point lay within 172 to 174 °C.

Take `O=C(CCc1ccccc1Cl)c1ccccc1`: the melting point was in the range of 46 to 48 °C.

Compound `NS(=O)(=O)c1ccc(Cl)cn1` had a melting point of 125 to 127 °C.

Consider `Cc1cc(N)ccc1NC(=O)CN1CCCC1=O`, for which the melting point was in the range of 209 to 211 °C.

Take `O=Cc1nc(-c2cc(Cl)ccc2Cl)cs1`: the melting point was in the range of 112 to 114 °C.

With `CCOc1ccccc1-n1nnnc1S`, the melting point is 53 to 55 °C.

Consider `O=C(O)CN1CCCC1=O`, for which the melting point lay within 125 to 135 °C.

In the case of `COC(=O)c1ccc(OCc2ccccc2)c(N)c1`, the melting point lay within 96 to 98 °C.

Take `Cc1cc(C(=O)NC2CCCC2)ccc1N`: the melting point lay in the range of 146 to 148 °C.

Compound `CCn1c(C)cc(C=O)c1C` yielded a melting point of 87 to 89 °C.

Compound `O=C1CN(C(=O)c2ccc(Cl)nc2)CCN1` yielded a melting point of 163 to 165 °C.

`CCN1N=C(C(=O)O)CC1=O` returned a melting point of 256 to 258 °C.

Turning to `Cn1cc(Br)cc1C(=O)NN`, the melting point lay in the range of 169 to 171 °C.

With `N#CCc1cc(Cl)ccc1Cl`, the melting point fell in the range of 92 to 94 °C.

`O=C(CN1CCNCC1)Nc1ccc(OC(F)(F)F)cc1` yielded a melting point of 86 to 88 °C.

Compound `CC(=CC(=O)O)C(C)(C)C` registered a melting point of 83 to 85 °C.

Compound `Cc1nc(S(=O)(=O)NCC(=O)O)cn1C` came in with a melting point of 217 to 219 °C.

For the origin of these results see a melting point compilation (Tetko et al.).
